How the values were obtained:
[1] = system: MRSA strains from cystic fibrosis patients; experiment: CLSI microdilution MICs against 40 MRSA strains; type: cell-based, Staphylococcus aureus; parameters: MICs (range): unit not given beside the values
Procedure: Strains. Two strains each of mucoid Pseudomonas aeruginosa (both pyocyanin positive) and 40 MRSA (only one strain with gold colonies), isolated within the past 12 months and beyond from patients at in cystic fibrosis clinic, were tested. Additionally, two B. cepacia strains were acquired from Hershey Medical Center. All strains were identified by standard methods. Only one strain per patient was tested. MLVA was done on all strains, to examine clonality and to ensure that testing was not being limited to only one or a few clones. Strains were stored in skim milk at −70° C. until use.
(§1) Susceptibility testing. Original MICs of each strain to CEM-102 and other comparators was tested by CLSI microdilution methodology. Trays were obtained from Trek, Inc., Cleveland, Ohio. Time-kill macrobroth MIC dilution by CLSI was performed for all synergy testing.
MICs were assayed by standard methodology.

[2] = system: MRSA strains SA 2230, SA 2232; experiment: Time-kill macrobroth MICs, MRSA strains SA 2230 and SA 2232; type: cell-based, Staphylococcus aureus
Procedure: as §1
(§2) Synergy testing. Two of the MRSA strains were chosen and tested for synergy, together with the four Gram-negative strains mentioned above. Broth macrodilution formed the basis of MICs used in time-kill experiments, as detailed below. The kill kinetics of each drug was tested alone by incubating an initial inoculum of 5×10^5 to 5×10^6 cfu/ml with drug concentrations at the MIC, three dilutions above and three dilutions below the MIC (1/2, 1/4 and 1/8×MIC). Viability counts were performed after 0, 3, 6, 12 and 24 h incubation at 37° C. in a shaking water bath by plating onto trypticase soy-5% sheep blood agar plates.

[3] = system: P. aeruginosa strains from cystic fibrosis patients; experiment: Macrobroth dilution MICs against two P. aeruginosa strains; type: cell-based, Pseudomonas aeruginosa
[4] = system: P. aeruginosa strains PSAR 461, PSAR 468; experiment: Time-kill macrobroth MICs, P. aeruginosa strains PSAR 461 and PSAR 468; type: cell-based, Pseudomonas aeruginosa; conditions: strain PSAR 468
Procedure: as §1, §2

[5] = system: B. cepacia strains BCEP 953, BCEP 954; experiment: Time-kill macrobroth MICs, B. cepacia strains BCEP 953 and BCEP 954; type: cell-based, Burkholderia cepacia
Procedure: as §1, §2

[6] = system: B. cepacia strains from cystic fibrosis patients; experiment: Macrobroth dilution MICs against two B. cepacia strains; type: cell-based, Burkholderia cepacia
[7] = blood; cited from earlier work
[8] = Staphylococcus aureus, microdilution, 40 MRSA strains

CCCCCCCCCC(=O)N[C@@H](Cc1c[nH]c2ccccc12)C(=O)N[C@H](CC(N)=O)C(=O)N[C@@H](CC(=O)O)C(=O)N[C@@H]1C(=O)NCC(=O)N[C@@H](CCCN)C(=O)N[C@@H](CC(=O)O)C(=O)N[C@H](C)C(=O)N[C@@H](CC(=O)O)C(=O)NCC(=O)N[C@H](CO)C(=O)N[C@@H]([C@H](C)CC(=O)O)C(=O)N[C@@H](CC(=O)c2ccccc2N)C(=O)O[C@@H]1C [Daptomycin]
MIC Range ([1]; microdilution, 40 MRSA strains): 0.5-1^ μg/ml

Teicoplanin
MIC Range ([1]; microdilution, 40 MRSA strains): 0.25 to 1 µg/mL

NC[C@H]1O[C@H](O[C@H]2[C@H](O)[C@@H](O[C@H]3O[C@H](CO)[C@@H](O)[C@H](N)[C@H]3O)[C@H](N)C[C@@H]2N)[C@H](N)C[C@@H]1O [Tobramycin, reference compound]
MIC (reason strain not tested in combination) ([2]; strain MRSA 2232): > 512 µg/mL | MIC Range [3]: 0.25 to 1.0 µg/mL

CC(=O)O[C@H]1C[C@@]2(C)[C@@H](C[C@@H](O)[C@H]3[C@@]4(C)CC[C@@H](O)[C@@H](C)[C@@H]4CC[C@@]32C)/C1=C(\CCC=C(C)C)C(=O)[O-].[Na+] [CEM-102, Sodium fusidate]
Time-kill macrobroth MIC ([2]; strain SA 2230): 0.5 µg/mL | Time-kill macrobroth MIC ([2]; strain SA 2232): 0.25 µg/mL | MIC50 [1, 8]: 0.12 µg/mL | MIC90 [1, 8]: 0.25 µg/mL | Potency in words ([1]; all strains of MRSA tested): very potent | MIC Range ([1]; microdilution, 40 MRSA strains): 0.12 to 0.5 µg/mL | MIC Range [3]: >64 µg/mL | Time-kill macrobroth MIC [4]: 256 µg/mL | Time-kill macrobroth MIC ([5]; strain BCEP 953): 512 µg/mL | Time-kill macrobroth MIC ([5]; strain BCEP 954): 512 µg/mL | MIC Range [6]: >64 µg/mL

CC(=O)O[C@H]1C[C@@]2(C)[C@@H](C[C@@H](O)[C@H]3[C@@]4(C)CC[C@@H](O)[C@@H](C)[C@@H]4CC[C@@]32C)/C1=C(\CCC=C(C)C)C(=O)O [FA, Fusidic Acid]
protein binding [7]: 95-97%

CN(C)c1cc(NC(=O)CNC(C)(C)C)c(O)c2c1C[C@H]1C[C@H]3[C@H](N(C)C)C(O)=C(C(N)=O)C(=O)[C@@]3(O)C(O)=C1C2=O [Tigecycline]
MIC Range ([1]; microdilution, 40 MRSA strains): 0.12 to 0.25 µg/mL

CC(=O)NC[C@H]1CN(c2ccc(N3CCOCC3)c(F)c2)C(=O)O1 [Linezolid]
MICs (range) ([1]; all MRSA strains tested): 1-4 | MIC Range ([1]; microdilution, 40 MRSA strains): 1 to 4 µg/mL

CN[C@H](CC(C)C)C(=O)N[C@H]1C(=O)N[C@@H](CC(N)=O)C(=O)N[C@H]2C(=O)N[C@H]3C(=O)N[C@H](C(=O)N[C@H](C(=O)O)c4cc(O)cc(O)c4-c4cc3ccc4O)[C@H](O)c3ccc(c(Cl)c3)Oc3cc2cc(c3O[C@@H]2O[C@H](CO)[C@@H](O)[C@H](O)[C@H]2O[C@H]2C[C@](C)(N)[C@H](O)[C@H](C)O2)Oc2ccc(cc2Cl)[C@H]1O [Vancomycin]
MIC Range ([1]; microdilution, 40 MRSA strains): 0.5-1^ μg/ml

NCC[C@H](O)C(=O)N[C@@H]1C[C@H](N)[C@@H](O[C@H]2O[C@H](CN)[C@@H](O)[C@H](O)[C@H]2O)[C@H](O)[C@H]1O[C@H]1O[C@H](CO)[C@@H](O)[C@H](N)[C@H]1O [Amikacin]
MIC Range [3]: 2 to 8 µg/mL

Source: patent publication US20130164351A1 (priority 2010, published 2013)
